Test results reported in article PMC9367672, “In vitro differences in toddalolactone metabolism in various species and its effect on cytochrome P450 expression” (Pharmaceutical Biology, 2022).

How the values were obtained:
[1] = system: HLMs; assay: Chemical inhibition assay: formation of P4 from toddalolactone in HLMs; type: in vitro ADME, human; settings: HLMs with toddalolactone and NADPH-generating system; ketoconazole 1 μM, clobetasol propionate 1.8 μM, quinidine 10 μM; vs no inhibitor
Protocol: All incubation assays were completed in triplicate. The data are presented as mean ± standard deviation (SD).
Specific inhibitors for P450 isoforms were used to explore the contribution of CYP isoforms to the biotransformation of toddalolactone. […] In brief, toddalolactone was incubated with HLMs and an NADPH-generating system in the presence and absence (control) of the aforementioned specific inhibitors.

[2] = biological target: CYP3A5 (Homo sapiens, UniProt P20815); set-up: purchased Corning Life Sciences (Corning, MA); host or cells: Saccharomyces cerevisiae; method as in Wright et al. [2020]; settings: at 1.8 μM; ref Wright et al. [2020]; cited from earlier work
[3] = substrate: COc1cc2oc(=O)ccc2c(OC)c1C[C@@H](O)C(C)(C)O; assay: cells, lysate or membranes named; settings: P4 formation, toddalolactone 1–200 μM, pH 7.4, 37.0 °C
Protocol: The CYP reaction system (200 μL) consisted of 0.1 M potassium phosphate buffer (pH 7.4), an NADPH-generating system (1 mM NADPH, 10 mM G-6-P, 1 unit/mL G-6-PD, 4 mM MgCl2), and liver microsomes or recombinant human microsomes (supersomes). Each of the in vitro enzymatic assays using liver microsomes was linear with respect to incubation time and amount of protein. After a pre-incubation at 37 °C for 3 min, the reactions were initiated by adding NADP^+. After incubating for 60 min, the reactions were quenched by adding 200 μL of ice-cold acetonitrile. Samples were centrifuged at 18,000 g for 15 min at 4 °C and 10 μL of supernatant was analyzed using an HPLC system. NADPH or CYP enzyme sources were not used in the control group to ensure that the metabolic reactions were CYP- and NADPH-dependent. All incubation assays were completed in triplicate. The data are presented as mean ± standard deviation (SD).
The enzyme kinetics of toddalolactone in oxidative metabolism and glucuronidation were determined by incubating liver microsomes (0.2 mg/mL) or CYPs (15 nM) with different concentrations of toddalolactone (1–200 μM). The kinetic parameters including Km and Vmax were obtained by fitting the experimental data to the Michaelis–Menten equation (Equation (1)), biphasic kinetics equation (Equation (2)), or substrate inhibition equation (Equation (3)) (He et al. [2018]), and the results were graphically represented on Eadie–Hofstee plots. The in vitro intrinsic clearance (CLint) was calculated based on the Vmax/Km ratio. Metabolites were quantified using the standard curve for toddalolactone because of the absence of metabolite standards. All incubations were repeated in three independent experiments. Kinetic constants were expressed with mean ± SD: (1) V=Vmax×[S]/Km+[S] (2) V=Vmax1×[S]/Ks1+[S]+Vmax2×[S]/Ks2+[S] […]

CCC(=O)O[C@]1(C(=O)CCl)[C@@H](C)C[C@H]2[C@@H]3CCC4=CC(=O)C=C[C@]4(C)[C@@]3(F)[C@@H](O)C[C@@]21C [clobetasol propionate]
inhibition of formation of P4 [1]: ~40% | inhibition of CYP3A5 [2]: 90%

B1: CYP1A1 (Homo sapiens) (protein)
chain: MLFPISMSATEFLLASVIFCLVFWVIRASRPQVPKGLKNPPGPWGWPLIGHMLTLGKNPHLALSRMSQQYGDVLQIRIGSTPVVVLSGLDTIRQALVRQGDDFKGRPDLYTFTLISNGQSMSFSPDSGPVWAARRRLAQNGLKSFSIASDPASSTSCYLEEHVSKEAEVLISTLQELMAGPGHFNPYRYVVVSVTNVICAICFGRRYDHNHQELLSLVNLNNNFGEVVGSGNPADFIPILRYLPNPSLNAFKDLNEKFYSFMQKMVKEHYKTFEKGHIRDITDSLIEHCQEKQLDENANVQLSDEKIINIVLDLFGAGFDTVTTAISWSLMYLVMNPRVQRKIQEELDTVIGRSRRPRLSDRSHLPYMEAFILETFRHSSFVPFTIPHSTTRDTSLKGFYIPKGRCVFVNQWQINHDQKLWVNPSEFLPERFLTPDGAIDKVLSEKVIIFGMGKRKCIGETIARWEVFLFLAILLQRVEFSVPLGVKVDMTPIYGLTMKHACCEHFQMQLRS
kcat ([3]; other: recombinant CYP1A1 (15 nM)): 0.76 ± 0.03 pmol/min/nmol CYP

B2: CYP3A5 (Homo sapiens) (protein)
chain: MDLIPNLAVETWLLLAVSLVLLYLYGTRTHGLFKRLGIPGPTPLPLLGNVLSYRQGLWKFDTECYKKYGKMWGTYEGQLPVLAITDPDVIRTVLVKECYSVFTNRRSLGPVGFMKSAISLAEDEEWKRIRSLLSPTFTSGKLKEMFPIIAQYGDVLVRNLRREAEKGKPVTLKDIFGAYSMDVITGTSFGVNIDSLNNPQDPFVESTKKFLKFGFLDPLFLSIILFPFLTPVFEALNVSLFPKDTINFLSKSVNRMKKSRLNDKQKHRLDFLQLMIDSQNSKETESHKALSDLELAAQSIIFIFAGYETTSSVLSFTLYELATHPDVQQKLQKEIDAVLPNKAPPTYDAVVQMEYLDMVVNETLRLFPVAIRLERTCKKDVEINGVFIPKGSMVVIPTYALHHDPKYWTEPEEFRPERFSKKKDSIDPYIYTPFGTGPRNCIGMRFALMNMKLALIRVLQNFSFKPCKETQIPLKLDTQGLLQPEKPIVLKVDSRDGTLSGE
kcat ([3]; other: recombinant CYP3A5 (15 nM)): 0.68 ± 0.04 pmol/min/nmol CYP
